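Five concentrations, 48 hours, 96-well plates. TGI: concentration producing complete growth inhibition.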
Assays:
Experiment in all cases: NCI anticancer screen, dose series, 48 h
RPMI-8226 leukemia = tested on: RPMI-8226 leukemia
M14 melanoma = tested on: M14 melanoma
CCRF-CEM leukemia = tested on: CCRF-CEM leukemia
SNB-19 CNS = tested on: SNB-19 CNS
EKVX NSCLC = tested on: EKVX NSCLC
SNB-75 CNS = tested on: SNB-75 CNS
SK-MEL-28 melanoma = tested on: SK-MEL-28 melanoma
OVCAR-4 ovarian = tested on: OVCAR-4 ovarian
NCI-H226 lung = tested on: NCI-H226 lung
786-0 renal = tested on: 786-0 renal
DU-145 prostate = tested on: DU-145 prostate
UACC-62 melanoma = tested on: UACC-62 melanoma
T-47D breast = tested on: T-47D breast
HS 578T breast = tested on: HS 578T breast

N#Cc1c2nc3ccccc3nc2n2ccc3ccccc3c12
TGI (RPMI-8226 leukemia): > 100 µM
TGI (M14 melanoma): > 100 µM
TGI (CCRF-CEM leukemia): > 100 µM
TGI (SNB-19 CNS): > 100 µM
TGI (EKVX NSCLC): > 100 µM
TGI (SNB-75 CNS): > 100 µM
TGI (SK-MEL-28 melanoma): > 100 µM
TGI (OVCAR-4 ovarian): > 100 µM
TGI (NCI-H226 lung): > 100 µM
TGI (786-0 renal): > 100 µM

CC[C@]12C=CCN3CCC4(c5cc([C@@]6(C(=O)OC)CC7CN(CCc8c6[nH]c6ccccc86)C[C@@H]6CCC[C@H]76)c(OC)cc5N(C)C4[C@](O)(C(=O)OC)C1OC(C)=O)C32 (stereo partly specified)
TGI (RPMI-8226 leukemia): > 7.96 µM
TGI (M14 melanoma): > 3.45 µM
TGI (DU-145 prostate): 0.0749 µM
TGI (CCRF-CEM leukemia): > 10 µM
TGI (SNB-19 CNS): > 10 µM
TGI (EKVX NSCLC): > 3.86 µM
TGI (SK-MEL-28 melanoma): > 10 µM
TGI (OVCAR-4 ovarian): > 8.93 µM
TGI (NCI-H226 lung): 1.5 µM
TGI (UACC-62 melanoma): > 10 µM
TGI (786-0 renal): > 10 µM

COc1cccc(-n2c(N)c(-c3nc4cc(C(F)(F)F)ccc4s3)c3ccc([N+](=O)[O-])cc3c2=O)c1
TGI (RPMI-8226 leukemia): > 100 µM
TGI (M14 melanoma): > 100 µM
TGI (T-47D breast): > 100 µM
TGI (DU-145 prostate): > 100 µM
TGI (SNB-19 CNS): > 100 µM
TGI (EKVX NSCLC): > 100 µM
TGI (SNB-75 CNS): > 100 µM
TGI (SK-MEL-28 melanoma): > 100 µM
TGI (OVCAR-4 ovarian): > 100 µM
TGI (NCI-H226 lung): > 100 µM
TGI (UACC-62 melanoma): > 100 µM
TGI (786-0 renal): > 100 µM

N#CC(c1cc(Cl)ncn1)c1nc2ccccc2s1 (stereo unspecified)
TGI (RPMI-8226 leukemia): > 100 µM
TGI (M14 melanoma): 33.6 µM
TGI (T-47D breast): > 100 µM
TGI (DU-145 prostate): 24.2 µM
TGI (SNB-19 CNS): 20.3 µM
TGI (EKVX NSCLC): 58.1 µM
TGI (SNB-75 CNS): 28.1 µM
TGI (SK-MEL-28 melanoma): 42.9 µM
TGI (OVCAR-4 ovarian): 91 µM
TGI (NCI-H226 lung): > 100 µM
TGI (786-0 renal): 29.5 µM

C/C(=N\Nc1nc2ccccc2o1)c1ccncn1
TGI (T-47D breast): 23.2 µM
TGI (CCRF-CEM leukemia): > 100 µM
TGI (HS 578T breast): 27.1 µM
TGI (SNB-19 CNS): > 100 µM
TGI (EKVX NSCLC): > 100 µM
TGI (SNB-75 CNS): > 48.2 µM
TGI (SK-MEL-28 melanoma): > 100 µM
TGI (OVCAR-4 ovarian): > 100 µM
TGI (NCI-H226 lung): > 100 µM
TGI (786-0 renal): 18.3 µM

O=C(c1ccccc1)c1c(CNCc2ccccc2)n(C(=O)c2ccccc2)c2ccccc12
TGI (RPMI-8226 leukemia): 55.1 µM
TGI (M14 melanoma): > 100 µM
TGI (CCRF-CEM leukemia): > 100 µM
TGI (SNB-19 CNS): > 100 µM
TGI (SNB-75 CNS): 27.5 µM
TGI (SK-MEL-28 melanoma): > 100 µM
TGI (OVCAR-4 ovarian): > 100 µM
TGI (NCI-H226 lung): > 100 µM
TGI (UACC-62 melanoma): > 100 µM
TGI (786-0 renal): > 100 µM

CCn1cnc2c(NC(C)=O)ncnc21
TGI (RPMI-8226 leukemia): > 100 µM
TGI (M14 melanoma): > 100 µM
TGI (T-47D breast): > 100 µM
TGI (DU-145 prostate): > 100 µM
TGI (CCRF-CEM leukemia): > 100 µM
TGI (SNB-19 CNS): > 100 µM
TGI (EKVX NSCLC): > 100 µM
TGI (SNB-75 CNS): > 100 µM
TGI (SK-MEL-28 melanoma): > 100 µM
TGI (OVCAR-4 ovarian): > 100 µM
TGI (NCI-H226 lung): > 100 µM
TGI (UACC-62 melanoma): > 100 µM
TGI (786-0 renal): > 100 µM

O=c1[nH]c(=O)n(C2CC(O)C(CO)O2)cc1C#Cc1cc(F)cc(F)c1 (stereo unspecified)
TGI (RPMI-8226 leukemia): > 100 µM
TGI (M14 melanoma): > 100 µM
TGI (CCRF-CEM leukemia): > 100 µM
TGI (SNB-19 CNS): > 100 µM
TGI (EKVX NSCLC): > 100 µM
TGI (SNB-75 CNS): > 100 µM
TGI (SK-MEL-28 melanoma): > 100 µM
TGI (OVCAR-4 ovarian): > 100 µM
TGI (NCI-H226 lung): > 100 µM
TGI (UACC-62 melanoma): > 100 µM
TGI (786-0 renal): > 100 µM

CC1CCC23COC(=O)C2C(O)CCC3C1(C)CC(O)c1ccoc1 (stereo unspecified)
TGI (M14 melanoma): > 100 µM
TGI (CCRF-CEM leukemia): > 100 µM
TGI (SNB-19 CNS): > 100 µM
TGI (EKVX NSCLC): > 100 µM
TGI (SNB-75 CNS): > 100 µM
TGI (SK-MEL-28 melanoma): > 100 µM
TGI (OVCAR-4 ovarian): > 100 µM
TGI (NCI-H226 lung): > 100 µM
TGI (UACC-62 melanoma): > 100 µM
TGI (786-0 renal): > 100 µM

COc1ccc(-c2nnc(CCCCCCCCc3nnc(-c4ccc(OC)cc4)o3)o2)cc1
TGI (M14 melanoma): > 100 µM
TGI (DU-145 prostate): > 100 µM
TGI (CCRF-CEM leukemia): > 100 µM
TGI (SNB-19 CNS): > 100 µM
TGI (EKVX NSCLC): > 100 µM
TGI (SNB-75 CNS): 93.6 µM
TGI (SK-MEL-28 melanoma): > 100 µM
TGI (OVCAR-4 ovarian): > 100 µM
TGI (NCI-H226 lung): > 100 µM
TGI (786-0 renal): > 100 µM

O=C(Nc1c(Cl)cc([N+](=O)[O-])cc1Cl)/C(=N\Nc1cccc(Cl)c1)c1c(O)c2ccccc2oc1=O
TGI (RPMI-8226 leukemia): > 100 µM
TGI (CCRF-CEM leukemia): > 100 µM
TGI (SNB-19 CNS): > 100 µM
TGI (EKVX NSCLC): > 100 µM
TGI (SK-MEL-28 melanoma): > 100 µM
TGI (OVCAR-4 ovarian): > 100 µM
TGI (UACC-62 melanoma): > 100 µM
TGI (786-0 renal): > 100 µM

Nc1ccc(N)c2c1C(=O)c1c(N)ccc(N)c1C2=O
TGI (RPMI-8226 leukemia): > 100 µM
TGI (M14 melanoma): > 100 µM
TGI (CCRF-CEM leukemia): > 68.3 µM
TGI (SNB-19 CNS): > 100 µM
TGI (EKVX NSCLC): > 100 µM
TGI (SNB-75 CNS): > 77.7 µM
TGI (SK-MEL-28 melanoma): > 100 µM
TGI (OVCAR-4 ovarian): 97.4 µM
TGI (NCI-H226 lung): 67.8 µM
TGI (UACC-62 melanoma): > 100 µM
TGI (786-0 renal): > 100 µM

S=C1SC(c2ccc(Cl)cc2)(c2ccc(Cl)cc2)c2ccccc21
TGI (M14 melanoma): > 100 µM
TGI (DU-145 prostate): > 100 µM
TGI (CCRF-CEM leukemia): > 100 µM
TGI (HS 578T breast): > 100 µM
TGI (SNB-19 CNS): > 100 µM
TGI (EKVX NSCLC): > 100 µM
TGI (SNB-75 CNS): > 100 µM
TGI (SK-MEL-28 melanoma): > 100 µM
TGI (OVCAR-4 ovarian): > 100 µM
TGI (NCI-H226 lung): > 100 µM
TGI (UACC-62 melanoma): > 100 µM
TGI (786-0 renal): > 100 µM

Cc1nn(C)c2c1C(=O)N(C)CC(=O)N2C
TGI (RPMI-8226 leukemia): > 100 µM
TGI (M14 melanoma): > 100 µM
TGI (DU-145 prostate): > 100 µM
TGI (CCRF-CEM leukemia): > 100 µM
TGI (HS 578T breast): > 100 µM
TGI (SNB-19 CNS): > 100 µM
TGI (EKVX NSCLC): > 100 µM
TGI (SNB-75 CNS): > 100 µM
TGI (SK-MEL-28 melanoma): > 100 µM
TGI (OVCAR-4 ovarian): > 100 µM
TGI (UACC-62 melanoma): > 100 µM
TGI (786-0 renal): > 100 µM

CC(=O)O[C@H]1[C@@H](N2CCN(C)CC2)C[C@H]2[C@@H]3CC=C4C[C@@H](N5CCCC5)CC[C@]4(C)[C@H]3CC[C@@]21C
TGI (RPMI-8226 leukemia): 44.2 µM
TGI (M14 melanoma): 34.5 µM
TGI (T-47D breast): > 100 µM
TGI (CCRF-CEM leukemia): > 100 µM
TGI (HS 578T breast): > 100 µM
TGI (SNB-19 CNS): > 100 µM
TGI (EKVX NSCLC): > 100 µM
TGI (SNB-75 CNS): > 100 µM
TGI (SK-MEL-28 melanoma): 96.9 µM
TGI (OVCAR-4 ovarian): > 100 µM
TGI (NCI-H226 lung): > 100 µM
TGI (UACC-62 melanoma): > 100 µM
TGI (786-0 renal): > 100 µM

COc1cc2c(cc1O)C(C)Cc1cc3c(cc1N(C)CC2)OCO3 (stereo unspecified)
TGI (RPMI-8226 leukemia): > 33.9 µM
TGI (M14 melanoma): 19 µM
TGI (CCRF-CEM leukemia): > 46.8 µM
TGI (SNB-19 CNS): > 87.4 µM
TGI (EKVX NSCLC): > 34.9 µM
TGI (SNB-75 CNS): 9 µM
TGI (SK-MEL-28 melanoma): 45.8 µM
TGI (OVCAR-4 ovarian): > 65.2 µM
TGI (NCI-H226 lung): 19.3 µM
TGI (UACC-62 melanoma): 12 µM
TGI (786-0 renal): 17.4 µM

Cc1cc(-c2ccccc2)cc2[n+]1CC=C2
TGI (M14 melanoma): > 100 µM
TGI (SNB-19 CNS): > 100 µM
TGI (EKVX NSCLC): > 100 µM
TGI (SNB-75 CNS): > 100 µM
TGI (SK-MEL-28 melanoma): > 100 µM
TGI (OVCAR-4 ovarian): > 100 µM
TGI (NCI-H226 lung): > 100 µM
TGI (786-0 renal): > 100 µM

CCNc1ncnc2n[nH]nc12
TGI (RPMI-8226 leukemia): > 100 µM
TGI (M14 melanoma): > 100 µM
TGI (T-47D breast): > 100 µM
TGI (DU-145 prostate): > 100 µM
TGI (CCRF-CEM leukemia): > 100 µM
TGI (SNB-19 CNS): > 100 µM
TGI (EKVX NSCLC): > 100 µM
TGI (SNB-75 CNS): > 100 µM
TGI (SK-MEL-28 melanoma): > 100 µM
TGI (OVCAR-4 ovarian): > 100 µM
TGI (NCI-H226 lung): > 100 µM
TGI (UACC-62 melanoma): > 100 µM
TGI (786-0 renal): > 100 µM
